Test system: SU-DHL-4 cells
Test: Inhibitory effect on cell viability (Cell Counting Kit-8)
Format: cell-based
Details: Homo sapiens, 72 hours culture with test compound, concentration showing 90% inhibition rate of cell viability
How it was run: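 IC90 corresponds to 90% loss of viability, measured as CCK-8 absorbance at 450 nm (2-3 h colour development). Compounds in 9 dilutions (0.1% DMSO) were applied for 72 h at 37° C to SU-DHL-4 lymphoma cells seeded at 2000/well in RPMI1640/10% FBS after 18-25 h preculture.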

Row | IC90 [nM] | SMILES
1 | 0.32 | CCC(=O)N1c2ccccc2[C@H](Nc2ccc(NC(=O)CNC(=O)C(F)=C3CCC(N[C@@H]4C[C@H](C)N(C(=O)CC)c5ccccc54)CC3)cc2)C[C@@H]1C (relative stereo) [Compound 15k, 2-Fluoro-2-(4-(((2S*,4R*)-2-methyl-1-propionyl-1,2,3,4-tetrahydroquinolin-4-yl)amino)cyclohexylidene)-N-(2-((4-(((2S,4R)-2-methyl-1-propionyl-1,2,3,4-tetrahydroquinolin-4-yl)amino)phenyl)amino)-2-oxoethyl)acetamide]
2 | 0.11 | CCC(=O)N1c2ccccc2[C@H](Nc2ccc(C(=O)NCc3noc(-c4ccc(N[C@@H]5C[C@H](C)N(C(=O)CC)c6ccccc65)cc4)n3)cc2)C[C@@H]1C [Compound 3d, 4-{[(2S,4R)-2-Methyl-1-propionyl-1,2,3,4-tetrahydroquinolin-4-yl]amino}-N-{[5-(4-{[(2S,4R)-2-methyl-1-propionyl-1,2,3,4-tetrahydroquinolin-4-yl]amino}phenyl)-1,2,4-oxadiazol-3-yl]methyl}benzamide]
3 | 0.12 | CCC(=O)N1c2ccccc2[C@H](Nc2ccc(-c3cnn(CCNC(=O)c4ccc(C5=NCc6nnc(C)n6-c6sc(C)c(C)c65)cc4)c3)cc2)C[C@@H]1C [Compound 14b, N-(2-(4-(4-(((2S,4R)-2-Methyl-1-propionyl-1,2,3,4-tetrahydroquinolin-4-yl)amino)phenyl)-1H-pyrazol-1-yl)ethyl)-4-(2,3,9-trimethyl-6H-thieno[3,2-f][1,2,4]triazolo[4,3-a][1,4]diazepin-4-yl)benzamide]
4 | 24.7 | CCC(=O)N1c2ccccc2[C@H](Nc2ccc(CNCCn3cc(-c4ccc(N[C@@H]5C[C@H](C)N(C(=O)CC)c6ccccc65)cc4)cn3)cc2)C[C@@H]1C [Compound 5f, 1-((2S,4R)-2-Methyl-4-((4-(((2-(4-(4-(((2S,4R)-2-methyl-1-propionyl-1,2,3,4-tetrahydroquinolin-4-yl)amino)phenyl)-1H-pyrazol-1-yl)ethyl)amino)methyl)phenyl)amino)-3,4-dihydroquinolin-1(2H)-yl)propan-1-one]
5 | 0.89 | CCC(=O)N1c2ccccc2[C@H](Nc2ccc(C(=O)N3CCn4c(C(O)c5ccc(N[C@@H]6C[C@H](C)N(C(=O)CC)c7ccccc76)cc5)cnc4C3)cc2)C[C@@H]1C (stereo partly drawn) [Compound 6a, 1-((2S,4R)-4-((4-(3-(Hydroxy(4-(((2S,4R)-2-methyl-1-propionyl-1,2,3,4-tetrahydroquinolin-4-yl)amino)phenyl)methyl)-5,6,7,8-tetrahydroimidazo[1,2-a]pyrazine-7-carbonyl)phenyl)amino)-2-methyl-3,4-dihydroquinolin-1(2H)-yl)propan-1-one]
6 | 0.14 | CCC(=O)N1c2ccccc2[C@H](Nc2ccc(C(=O)N3CCC(n4cc(-c5ccc(N[C@@H]6C[C@H](C)N(C(=O)CC)c7ccccc76)cc5)cn4)CC3)cc2)C[C@@H]1C [Compound 6o, 1-((2S,4R)-2-Methyl-4-((4-(1-(1-(4-(((2S,4R)-2-methyl-1-propionyl-1,2,3,4-tetrahydroquinolin-4-yl)amino)benzoyl)piperidin-4-yl)-1H-pyrazol-4-yl)phenyl)amino)-3,4-dihydroquinolin-1(2H)-yl)propan-1-one]
7 | 4.35 | CCC(=O)N1c2ccccc2[C@H](Nc2ccc(NC(=O)C3CN(C(=O)C4CCN(Cc5cc(O)cc(-c6c(C)noc6C)c5)CC4)C3)cc2)C[C@@H]1C [Compound 12b, 1-(1-(3-(3,5-Dimethylisoxazol-4-yl)-5-hydroxybenzyl)piperidine-4-carbonyl)-N-(4-(((2S,4R)-2-methyl-1-propionyl-1,2,3,4-tetrahydroquinolin-4-yl)amino)phenyl)azetidine-3-carboxamide]
8 | 0.13 | CCC(=O)N1c2ccccc2[C@H](Nc2ccc(C(=O)NCC#CC(=O)N3CCC(N[C@@H]4C[C@H](C)N(C(=O)CC)c5ccccc54)CC3)cc2)C[C@@H]1C [Compound 10c, 4-(((2S,4R)-2-Methyl-1-propionyl-1,2,3,4-tetrahydroquinolin-4-yl)amino)-N-(4-(4-(((2S,4R)-2-methyl-1-propionyl-1,2,3,4-tetrahydroquinolin-4-yl)amino)piperidin-1-yl)-4-oxobut-2-yn-1-yl)benzamide]
9 | 1.8 | CCC(=O)N1c2ccccc2[C@H](Nc2ccc(C(=O)NC3CN(C(=O)c4ccc(C5=NCc6nnc(C)n6-c6sc(C)c(C)c65)cc4)C3)cc2)C[C@@H]1C [Compound 14k, 4-(((2S,4R)-2-Methyl-1-propionyl-1,2,3,4-tetrahydroquinolin-4-yl)amino)-N-(1-(4-(2,3,9-trimethyl-6H-thieno[3,2-f][1,2,4]triazolo[4,3-a][1,4]diazepin-4-yl)benzoyl)azetidin-3-yl)benzamide]
10 | 15.9 | CCC(=O)N1c2ccccc2[C@H](Nc2ccc(NC(=O)CCCC(=O)Nc3ccc(N[C@@H]4C[C@H](C)N(C(=O)CC)c5cc(C6=CCNCC6)ccc54)cc3)cc2)C[C@@H]1C (relative stereo) [Compound 10u, N^1-(4-(((2S,4R)-2-Methyl-1-propionyl-1,2,3,4-tetrahydroquinolin-4-yl)amino)phenyl)-N^5-(4-(((2S*,4R*)-2-methyl-1-propionyl-7-(1,2,3,6-tetrahydropyridin-4-yl)-1,2,3,4-tetrahydroquinolin-4-yl)amino)phenyl)glutaramide]
11 | 0.05 | CCC(=O)N1c2ccccc2[C@H](Nc2ccc(-n3cc(CNC(=O)c4ccc(C5=NCc6nnc(C)n6-c6sc(C)c(C)c65)cc4)nn3)cc2)C[C@@H]1C [Compound 14n, N-((1-(4-(((2S,4R)-2-Methyl-1-propionyl-1,2,3,4-tetrahydroquinolin-4-yl)amino)phenyl)-1H-1,2,3-triazol-4-yl)methyl)-4-(2,3,9-trimethyl-6H-thieno[3,2-f][1,2,4]triazolo[4,3-a][1,4]diazepin-4-yl)benzamide]

Test system: MYC mRNA expression in SU-DHL-4 cells
Test: Suppressive effect on MYC mRNA expression (qRT-PCR)
Format: cell-based
Details: test compound 100 nmol/L, 6 hours
Protocol: Suppressive Effect on MYC mRNA Expression
SU-DHL-4 cells were cultured at 37° C. using a carbon dioxide gas incubator (95% air, 5% CO2) in RPMI1640 medium in which FBS in an amount to give a final concentration of 10 vol % and PS in an amount to give a final concentration of 1 vol % were added. The cells were passaged twice a week at a volume of 20-40 mL so as to maintain a cell concentration of 1×10^6 cells/mL or less.
The cultured SU-DHL-4 cells were seeded at 6×10^5 cells/well in a transparent 6-well plate (Code No. 140675, Thermo Fisher Scientific). After seeding, the cells were precultured at 37° C. in a carbon dioxide gas incubator for 18 to 25 hours. Next, a 0.1 mmol/L DMSO solution of the test compound was prepared, diluted so that the concentration will be 200 times the final concentration in the RPMI1640 medium containing the above FBS and PS, and 1/200 volume of the diluted solution was added to each well. At this time, the final concentration of DMSO was adjusted to be 0.1 vol %. After adding the test compound, the cells were cultured at 37° C. in a carbon dioxide gas incubator for 6 hours.
Then, the cells were collected by centrifugation and used for extraction of mRNA. mRNA extraction from cells was performed using Maxwell® 16 LEV simplyRNA Purification Kits (Code No. AS1270, Promega). The mRNA recovery protocol was performed according to the manufacturer's recommended protocol attached to the kit.
0.001 mg of the recovered mRNA was converted to cDNA by SuperScript IV VILO Master Mix with ezDNase Enzyme (Code No. 11766050, Thermo Fisher Scientific). The cDNA conversion was performed, according to the manufacturer's recommended protocol attached to the kit, in 0.020 mL of the reaction solution, and GeneAmp® PCR System 9700 (Applied Biosystems) was used. The cDNA-converted sample was diluted 10-fold by adding 0.180 mL of RNase Free Water (Code No. 10977-023, Thermo Fisher Scientific) and used for quantitative real-time polymerase chain reaction (qRT-PCR). For the calibration curve of qRT-PCR, 0.08 mL of RNase Free Water was added to a cDNA sample using DMSO as a test compound for 5-fold dilution. Further, two 5-fold dilutions were prepared stepwise, and these three samples were used as the calibration curve samples.
The following reagents were used for qRT-PCR: TaqMan Gene Expression Assays, Inventoried (Primer probe: Code No. 4331182, Thermo Fisher Scientific, Assay ID: (i) MYC: Hs00153408_m1, (ii) ACTB: Hs01060665_g1, (iii) GAPDH: Hs04420697_g1, (iv) HPRT1: Hs02800695_m1); 2X TaqManR Fast Universal PCR Master Mix, no AmpEraseR UNG (Master Mix: Code No. 4367846, Thermo Fisher Scientific).
Primer probe (0.001 mL), Master Mix (0.010 mL), water (0.004 mL) and the diluted cDNA sample (0.005 mL) were mixed, and qRT-PCR analysis was performed. For qRT-PCR analysis, QuantStudio 7 Flex (Thermo Fisher Scientific) or 7500 Fast Real-Time PCR (Applied Biosystems) was used to measure in Fast mode and analyze. The expression level of the MYC gene was determined by quantifying ACTB, GAPDH, and HPRT1 as housekeeping genes and correcting by the following formula to calculate the suppression rate of (%) of MYC mRNA expression when the test compound was allowed to act at a concentration of 100 nmol/L. Corrected MYC expression=A/B • A: MYC expression level • B: Geometric mean of expression levels of ACTB, GAPDH and HPRT1
Using the corrected values, the suppression rate of MYC expression for the wells to which […] was calculated by the following formula. Suppression rate of MYC expression (%)=100−C/D×100 • C: Corrected MYC expression level in a well containing test compound • D: Corrected MYC expression level in a well to which test compound was not added

Row | SMILES | Suppression rate of MYC mRNA expression [%]
12 | CCC(=O)N1c2ccccc2[C@H](Nc2ccc(NC(=O)CCCC(=O)Nc3ccc(Cn4c(C(=O)OCCN(C)C)cc5c4CCCC5=O)cc3)cc2)C[C@@H]1C [Compound 15a, 2-(Dimethylamino)ethyl 1-(4-(5-((4-(((2S,4R)-2-methyl-1-propionyl-1,2,3,4-tetrahydroquinolin-4-yl)amino)phenyl)amino)-5-oxopentanamide)benzyl)-4-oxo-4,5,6,7-tetrahydro-1H-indole-2-carboxylate] | 97.6
13 | CCC(=O)N1c2ccccc2[C@H](Nc2ccc(C(=O)N3CC(C(=O)N[C@H]4CC[C@H](N[C@@H]5C[C@H](C)N(C(=O)CC)c6ccccc65)CC4)C3)cc2)C[C@@H]1C [Compound 8r, 1-(4-(((2S,4R)-2-Methyl-1-propionyl-1,2,3,4-tetrahydroquinolin-4-yl)amino)benzoyl)-N-((1R,4R)-4-(((2S,4R)-2-methyl-1-propionyl-1,2,3,4-tetrahydroquinolin-4-yl)amino)cyclohexyl)azetidine-3-carboxamide] | 96.7
